Patent publication US8853147B2, “Use of peptide epoxyketones for metastasis suppression” (Onyx Therapeutics, Inc., priority 2009, dated 2014)
“Also recorded” adds a separate entry of the source.

Test system: 4T1 mammary carcinoma cells
Assay: 4T1 mammary carcinoma metastasis model in BALB/c mice (mammary fat pad challenge, lung metastases)
Assay type: in vivo
Settings: female BALB/c mice
Experimental: 6-8 week old female BALB/c mice were challenged in the mammary fat pad with 4T1 mammary carcinoma cells (1×10^5/mouse). Treatment was initiated on Day 3 post tumor challenge. Compound 1 was administered orally at 30 or 40 mg/kg on a weekly schedule of QDX2 or QDX5.

COC[C@H](NC(=O)c1cnc(C)s1)C(=O)N[C@@H](COC)C(=O)N[C@@H](Cc1ccccc1)C(=O)[C@@]1(C)CO1 [Compound 1]
reduction of the number of metastatic tumors in the lung (4T1 cells 1×10^5/mouse in mammary fat pad, oral 30 or 40 mg/kg, weekly schedule QDX2 or QDX5, treatment from Day 3 post tumor challenge): about 50%
repression of metastasis (number of metastatic tumors), result in words (4T1 model, both dose schedules (QDX2, QDX5) and dose levels (30, 40 mg/kg oral), FIG. 1): reduction in the number of metastatic breast tumors; also recorded: effective in repressing metastasis
